pKd: −log10 of the molar value.
Tests used:
[1] = target: T1, human serum albumin (HSA) (Homo sapiens, UniProt P02768); test: thermal denaturation followed by intrinsic fluorescence; type: binding; conditions: 10 mM PBS pH 7.4, 0.4 μM HSA, 40 μM DHLA, 37-87 °C
[2] = target: T1, human serum albumin (HSA); test: intrinsic fluorescence quenching titration; type: binding

T1 sequence (P02768 25-609): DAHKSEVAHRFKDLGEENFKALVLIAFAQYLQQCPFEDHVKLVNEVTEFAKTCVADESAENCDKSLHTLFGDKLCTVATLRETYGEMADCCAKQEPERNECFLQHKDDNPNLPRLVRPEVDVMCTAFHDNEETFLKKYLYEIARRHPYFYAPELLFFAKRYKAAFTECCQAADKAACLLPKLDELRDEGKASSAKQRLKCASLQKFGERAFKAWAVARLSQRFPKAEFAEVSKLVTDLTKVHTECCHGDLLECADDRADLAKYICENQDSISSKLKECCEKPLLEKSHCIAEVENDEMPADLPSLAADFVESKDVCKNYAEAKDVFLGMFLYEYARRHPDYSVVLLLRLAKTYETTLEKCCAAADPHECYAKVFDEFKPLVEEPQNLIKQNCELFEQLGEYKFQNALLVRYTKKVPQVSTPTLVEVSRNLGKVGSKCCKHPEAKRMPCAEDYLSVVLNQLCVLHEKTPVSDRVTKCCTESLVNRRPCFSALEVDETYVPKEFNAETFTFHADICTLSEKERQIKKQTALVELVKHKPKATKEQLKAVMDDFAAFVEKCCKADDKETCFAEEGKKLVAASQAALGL

For `O=C(O)CCCC[C@@H](S)CCS` [dihydro-alpha-lipoic acid], the “Tm with ligand (HSA alone 68 °C)” value [1] was 70 °C and the pKd [2] was 3.90.
